Reference: ChEMBL document CHEMBL3879902, “Compounds and methods for kinase modulation, and indications thereof” (2012)

How the values were obtained:
[1] = Aqueous solubility of the compound in simulated gastric fluid at pH 1.5; type: ADME; conditions: simulated gi fluid
[2] = Aqueous solubility of the compound in simulated intestinal fluid at pH 4.5; type: ADME; conditions: simulated gi fluid
[3] = Aqueous solubility of the compound in simulated intestinal fluid at pH 6.8; type: ADME; conditions: simulated gi fluid
[4] = Aqueous solubility of the compound in hepes buffer at pH 7.4; type: physicochemical

| solubility [1] | solubility [2] | solubility [3] | solubility [4] | SMILES |
| --- | --- | --- | --- | --- |
| Soluble | Soluble | Soluble | Soluble | COc1ccnc2[nH]cc(C(=O)c3c(F)ccc(NS(=O)(=O)c4ccccc4F)c3F)c12 |
| Insoluble | Insoluble | Soluble | Soluble | N#Cc1cnc2[nH]cc(C(=O)c3c(F)ccc(NS(=O)(=O)c4ccccc4)c3F)c2c1 |
| Insoluble | Soluble | Soluble | Soluble | Cc1cnc2[nH]cc(C(=O)c3c(F)ccc(NS(=O)(=O)c4ccccc4F)c3F)c2c1 |
| Soluble | Soluble | Soluble | Soluble | COc1ccnc2[nH]cc(C(=O)c3c(F)ccc(NS(=O)(=O)c4cccc(F)c4)c3F)c12 |
| Soluble | Soluble | Soluble | Soluble | COc1ccnc2[nH]cc(C(=O)c3c(F)ccc(NS(=O)(=O)c4cc(F)ccc4F)c3F)c12 |
| Insoluble | Insoluble | Insoluble | Insoluble | COc1ncc(-c2cnc3[nH]cc(C(=O)c4c(F)ccc(NS(=O)(=O)c5ccccc5F)c4F)c3c2)cn1 |
| Soluble | Insoluble | Soluble | Soluble | Cc1cnc2[nH]cc(C(=O)c3c(F)ccc(NS(=O)(=O)c4cc(F)ccc4F)c3F)c2c1 |

Second part, the molecule before the results:

| SMILES | solubility [1] | solubility [2] | solubility [3] | solubility [4] |
| --- | --- | --- | --- | --- |
| CCCS(=O)(=O)Nc1ccc(F)c(C(=O)c2c[nH]c3ncc(-c4ccc(NS(C)(=O)=O)cc4)cc23)c1F | Insoluble | Insoluble | Insoluble | Insoluble |
| CCCS(=O)(=O)Nc1ccc(F)c(C(=O)c2c[nH]c3ncc(C#CCOC)cc23)c1F | Insoluble | Soluble | Insoluble | Soluble |
| N#Cc1cnc2[nH]cc(C(=O)c3cccc(NS(=O)(=O)c4ccccc4)c3F)c2c1 | Insoluble | Insoluble | Soluble | Soluble |
| CCCS(=O)(=O)Nc1ccc(F)c(C(=O)c2c[nH]c3ncc(-c4cnn(CCN5CCOCC5)c4)cc23)c1F | Soluble | Soluble | Insoluble | Insoluble |
| CCCS(=O)(=O)Nc1ccc(F)c(C(=O)c2c[nH]c3ncc(-c4ccc(OCCCN5CCCC5)nc4)cc23)c1F | Insoluble | Soluble | Insoluble | Insoluble |
| CCCS(=O)(=O)Nc1ccc(F)c(C(=O)c2c[nH]c3ncc(-c4ccc(OCCN5CCOCC5)nc4)cc23)c1F | Soluble | Soluble | Insoluble | Insoluble |
| CCCS(=O)(=O)Nc1ccc(F)c(C(=O)c2c[nH]c3ncc(-c4cnc(SC)nc4)cc23)c1F | Insoluble | Insoluble | Insoluble | Insoluble |
| CCCS(=O)(=O)Nc1ccc(F)c(C(=O)c2c[nH]c3ncc(-c4ccc(NC(C)=O)nc4)cc23)c1F | Soluble | Insoluble | Insoluble | Insoluble |
| CCCS(=O)(=O)Nc1ccc(F)c(C(=O)c2c[nH]c3ncc(-c4ccc(S(=O)(=O)N5CCOCC5)cc4)cc23)c1F | Insoluble | Insoluble | Insoluble | Insoluble |
| CCCS(=O)(=O)Nc1ccc(F)c(C(=O)c2c[nH]c3ncc(-c4ccc(N5CCCC5)nc4)cc23)c1F | Insoluble | Insoluble | Insoluble | Insoluble |
| CCCS(=O)(=O)Nc1ccc(F)c(C(=O)c2c[nH]c3ncc(-c4ccc(N(C)C)nc4)cc23)c1F | Soluble | Insoluble | Soluble | Soluble |
| CCCS(=O)(=O)Nc1ccc(F)c(C(=O)c2c[nH]c3ncc(-c4ccc(F)nc4)cc23)c1F | Insoluble | Insoluble | Insoluble | Insoluble |
| CCCS(=O)(=O)Nc1ccc(F)c(C(=O)c2c[nH]c3ncc(-c4ccc(OCCCN(C)C)nc4)cc23)c1F | Soluble | Soluble | Insoluble | Insoluble |
